Assay results as given in patent US20190083420A1, “METHODS OF USING (2R, 6R)-HYDROXYN[…] (2S, 6S)-HYDROXYN[…] THE TREATMENT OF DEPRESSION, ANXIETY, ANHEDONIA, FATIGUE, SUICIDAL IDEATION, AND POST TRAUMATIC STRESS DISORDERS” (The Uinited States of America, as represented by the …, priority 2016, published 2019).

Key:
[1] = system: mice; assay: Open field test (locomotor activity); format: in vivo; settings: 1 hour after i.p. drug
Protocol: Mice were placed into individual open-field arenas (50 cm length×50 cm width×38 cm height; San Diego Instruments, San Diego, Calif., USA) for a 60-min habituation period. Mice were then injected with the respective drug and assessed for locomotor activity for another 60 min. Distance travelled was analyzed using TopScan v2.0 (CleverSys, Inc, Reston, Va., USA).

[2] = system: male CD-1 mice; assay: Learned helplessness (LH); format: in vivo; settings: single injection; for antidepressant-like effect in learned helplessness (escape failures): test 24 hours after administration
From the text: (§1) Male CD-1 mice (8-10 weeks old, Charles River Laboratories, Mass., USA) were housed in groups of four-five per cage with a constant 12-hour light/dark cycle (lights on/off at 07:00/19:00). Food and water were available ad libitum. Mice acclimatized to the new environment for seven days prior to the start of the experiments. For the whole-cell NMDA current electrophysiological recordings, male Sprague-Dawley rats (housed three per cage; Charles River, Wilmington, Mass.) were used. EPSC recording were done from rats at postnatal day 24-25. All experimental procedures were approved by the University of Maryland, Baltimore Animal Care and Use Committee and were conducted in full accordance with the National Institutes of Health Guide for the Care and Use of Laboratory Animals.
The LH paradigm consisted of three different phases, i.e., inescapable shock training, LH screening, and the LH test. For the inescapable shock portion of the test (Day 1), the animals were placed in one side of two-chambered shuttle boxes (34 cm height×37 cm width×18 cm depth; Coulbourn Instruments, PA, USA), with the door between the chambers closed. Following a five-min adaptation period, 120 inescapable foot-shocks (0.45 mA, 15 sec duration, randomized average inter-shock interval of 45 sec) were delivered through the grid floor. During the screening session (Day 2), the mice were placed in one of the two chambers of the apparatus for 5 min. A shock (0.45 mA) was then delivered, and the door between the two chambers was raised simultaneously. Crossing over into the second chamber terminated the shock. […] A total of 30 screening trials of escapable shocks were presented to each mouse with an average of 30 sec delay between each trial. Mice that developed helplessness behavior (>5 escape failures during the last 10 screening shocks) were administered with the respective drug 24 hours following screening (Day 3). During the LH test phase (Day 4), the animals were placed in the shuttle boxes and, after a 5-min adaptation period, a 0.45 mA shock was delivered concomitantly with door opening for the first five trials, followed by a 2-sec delay for the next 40 trials. Crossing over to the second chamber terminated the shock. […] A total of 45 trials of escapable shock were presented to each mouse with 30 sec inter-trial intervals. The number of escape failures was recorded for each mouse.

[3] = Tissue distribution of ketamine and metabolites (plasma and brain levels)
Protocol: Mice were euthanized by a 30-sec exposure to 3% isoflurane and decapitated at 10, 30, 60, 240 or 480 minutes following drug administration. Trunk blood was collected in EDTA-containing tubes and centrifuged at 8000 rpm for 6 min (4° C.). Plasma was collected and stored at −80° C. until analysis. Whole brains were simultaneously collected, rinsed with phosphate-buffered saline, immediately frozen in dry ice and stored at −80° C. until analysis.
The concentrations of ketamine and its metabolites in plasma and brain tissue were determined by achiral liquid chromatography-tandem mass spectrometry. For plasma samples, the calibration standards for (R,S)-ketamine, (R,S)-norketamine, (2R,6R;2S,6S)-HNK and (R,S)-DHNK ranged from 10,000 ng/ml to 19 ng/ml. The quantification of (R,S)-ketamine, (R,S)-norketamine, (R,S)-DHNK, and the HNK stereoisomers was accomplished by calculating area ratios using D4-ketamine (10 μl of 10 μg/ml solution) as the internal standard. Whole brains were suspended in 990 μl of water:methanol (3:2, v/v), D4-ketamine (10 μl of 10 μg/ml) added and the resulting mixture homogenized on ice with a polytron homogenizer and centrifuged at 21,000×g for 30 min. The supernatant was collected and processed using 1 ml Oasis HLB solid phase extraction cartridges (Waters Corp., Waltham, Mass.). The cartridges were preconditioned with 1 ml of methanol, followed by 1 ml of water and then 1 ml ammonium acetate [10 mM, pH 9.5]. The supernatants were added to the cartridges, followed by 1 ml of water and the compounds were eluted with 1 ml of methanol. The eluent was transferred to an autosampler vial for analysis. QC standards for the analysis of (R,S)-ketamine, (R,S)-norketamine, (R,S)-DHNK and (2R,6R;2S,6S)-HNK ranged from 10,000 ng/ml to 19 ng/ml, and quantification was accomplished using D4-(R,S)-ketamine as the internal standard. QC standards were prepared daily by adding 10 μl of the appropriate standard solution and 10 μl of internal standard solution (100 ng/ml) to methanol.

[4] = system: mice; assay: Accelerating rotarod (motor coordination); format: in vivo; settings: 5-60 min post-injection, i.p.
Protocol: The rotarod test was conducted to compare the effects of ketamine, (2S,6S)-HNK and (2R,6R)-HNK on motor coordination. The experiment consisted of two phases: training phase (4 days) and a test phase (1 day). On each of the training days five trials (trial time: 3 min) were conducted with an inter-trial interval of two min Mice were individually placed on the rotarod apparatus (HTC Life Science; Woodland Hills, Calif., USA) and the rotor (3.75 inch diameter) accelerated from 5-20 RPM over a period of three minutes. Latency to fall was recorded for each trial. Animals with an average of <100 sec of latency to fall during the last training day were excluded from the experiment. On the test day (day 5), mice received (i.p.) injections of saline, (R,S)-KET (10 mg/kg), (2S,6S)-HNK (25 or 125 mg/kg) or (2R,6R)-HNK (2.5 or 125 mg/kg) and were tested in the rotating rod 5-. 10-, 15-, 20-, 30- and 60-min post-injection using the same procedure described for the training days.

[5] = plasma of humans; cited from earlier work
[6] = system: male CD-1 mice; assay: Novelty-suppressed feeding (NSF); format: in vivo; settings: i.p.
From the text: as §1
Mice were singly housed and food-deprived for twenty-four hours in freshly-made home-cages. Two normal chow diet pellets were placed on a square food platform (10×10 cm) in the center of an open-field arena (40×40 cm). […] The time needed for the mice to take a bite of food was recorded over a 10 min period by a trained observer blind to the treatment groups. After the test, the mice were returned to their home cage containing pre-weighed food pellets, and latency to bite the food as well as consumption was recorded for a period of 10 min.

[7] = system: male CD-1 mice; assay: Forced-swim test (FST); format: in vivo; settings: 1- and 24-hours post-injection, times not separated, i.p.
From the text: as §1
Mice were tested in the FST 1 hour and/or 24 hours post-injection. During the FST, mice were subjected to a 6-min swim session in clear Plexiglass cylinders (30 cm height×20 cm diameter) filled with 15 cm of water (23±1° C.). The FST was performed in normal light conditions (800 Lux). Sessions were recorded using a digital video-camera. Immobility time, defined as passive floating with no additional activity other than that necessary to keep the animal's head above water, was scored for the last 4 min of the 6-min test by a trained observer blind to the treatment.
All drugs were dissolved in 0.9% saline, and administered intraperitoneally (i.p.) in a volume of 7.5 ml/kg of body mass. Corticosterone (4-pregnen-11β, 21-diol-3, 20-dione 21-hemisuccinate; Steraloids, Newport, R.I., USA) was dissolved in tap water. For the electrophysiology recordings, test drugs were diluted in artificial cerebrospinal fluid (AC SF).

[8] = system: NMDA receptor; settings: (S)-ketamine versus (R)-ketamine; cited from earlier work

In the case of `N[C@]1(c2ccccc2Cl)CCC[C@H](O)C1=O` [(2S,6S)-HNK, (2S,6S)-2-amino-2-(2-chlorophenyl)-6-hydroxycyclohexanone], the “locomotor activity in the open-field test” value [1] is reported as “increased locomotor activity”, the “locomotor activity in the open-field test” value ([1]; listed as (2S,6S)-hydroxynorketamine) is reported as “dose-dependently changed locomotor activity” and the “doses with antidepressant-like effects in learned helplessness” value [2] is reported as 75 mg/kg. For the same compound, the “antidepressant-like effect in learned helplessness (escape failures)” value [2] was “induced antidepressant-like effects”, the “brain hydroxynorketamine levels after administration of (2S,6S)-HNK versus (2R,6R)-HNK” value ([3]; brain) was “higher brain hydroxynorketamine levels compared to (2R,6R)-HNK” and the “motor coordination in the rotarod” value [4] was “motor incoordination”. For the same compound, the “motor coordination in the rotarod” value ([4]; listed as (2S,6R)-HNK) was “induced motor incoordination”.
In the case of `N[C@@]1(c2ccccc2Cl)CCC[C@@H](O)C1=O` [(2S,6S;2R,6R)-HNK, (2S,6S;2R,6R)-hydroxynorketamine], the “brain levels following ketamine administration, female mice compared to males” value ([3]; brain) is listed as “three fold higher”, the “metabolite found in plasma and brain following ketamine administration” value ([3]; mice, (R,S)-KET 10 mg/kg i.p.) is listed as “major HNK metabolite” and the “metabolite found in plasma following ketamine administration” value [5] is listed as “major HNK metabolite”.
With `CN[C@@]1(c2ccccc2Cl)CCCCC1=O` [(R)-ketamine, reference compound] the “antidepressant-like effect in novelty-suppressed feeding (latency to feed)” value [6] was “greater potency”, the “antidepressant effect in the FST (immobility time)” value [7] was “greater potency” and the “antidepressant-like effect in learned helplessness (escape failures)” value [2] was “greater potency”. The “brain levels of (R)-ketamine compared to (S)-ketamine” value ([3]; brain, after (S)- and (R)-KET) was “does not result from higher brain levels”.
In the case of `CN[C@]1(c2ccccc2Cl)CCCCC1=O` [(S)-ketamine], the “potency as inhibitor of the NMDA receptor relative to (R)-ketamine” value [8] is given as about 4 fold.
